Source: US9133235B2, “Macrocyclic antagonists of the motilin receptor for treatment of gastrointestinal dysmotility disorders” (Ocera Therapeutics, Inc., priority 2006, dated 2015)

Key:
Format in all cases: in vitro ADME
[1] = biological target: T1, CYP1A2 (Homo sapiens, UniProt P05177); test: Cytochrome P450 inhibition, CYP1A2; details: Supersomes; read-out: IC50 (μM) 1A2
T1 construct: purchased BD Gentest, Becton-Dickinson (Supersomes); host or cells: insect cells (microsomes)
T1 sequence (P05177 1-516): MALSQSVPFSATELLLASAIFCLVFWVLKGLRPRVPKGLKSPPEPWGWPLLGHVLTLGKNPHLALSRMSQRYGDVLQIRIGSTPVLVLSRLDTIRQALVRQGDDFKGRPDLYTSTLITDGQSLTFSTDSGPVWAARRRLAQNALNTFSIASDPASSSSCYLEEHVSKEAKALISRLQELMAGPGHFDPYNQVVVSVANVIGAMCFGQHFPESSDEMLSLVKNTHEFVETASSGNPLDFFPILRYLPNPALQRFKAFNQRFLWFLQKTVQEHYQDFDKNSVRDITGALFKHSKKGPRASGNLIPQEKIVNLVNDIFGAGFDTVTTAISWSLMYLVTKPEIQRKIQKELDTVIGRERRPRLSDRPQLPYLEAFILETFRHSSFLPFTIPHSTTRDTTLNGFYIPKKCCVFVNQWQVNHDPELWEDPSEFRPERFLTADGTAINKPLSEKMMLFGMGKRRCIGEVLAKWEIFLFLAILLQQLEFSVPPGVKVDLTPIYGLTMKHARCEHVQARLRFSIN
Text: (§1) F. Assay for Cytochrome P450 Inhibition
(§2) Cytochrome P450 enzymes are implicated in the phase I metabolism of drugs. The majority of drug-drug interactions are metabolism-based and, moreover, these interactions typically involve inhibition of cytochrome P450s. Six CYP450 enzymes (CYP1A2, CYP2C8, CYP2C9, CYP2C19, CYP2D6 and CYP3A4) appear to be commonly responsible for the metabolism of most drugs and the associated drug-drug interactions. Assays to determine the binding of compounds of the invention to the various metabolically important isoforms of cytochrome P450 metabolizing enzymes are commercially available, for example NoAb BioDiscoveries (Mississaugua, ON, Canada) and Absorption Systems (Exton, Pa., USA). As well, a number of appropriate methods have been described or reviewed in the literature. (White, R. E. Ann. Rev. Pharmacol. Toxicol. 2000, 40, 133-157; Li, A. P. Drug. Disc. Today 2001, 6, 357-366; Turpeinen, M.; Korhonen, L. E. Tolonen, A.; et al. Eur. J. Pharm. Sci. 2006, 29, 130-138.)
(§3) The concentration of the inhibitor or test compound that inhibited metabolite formation by 50% (IC50) was calculated by non-linear regression analysis of the % inhibition vs. log concentration (M) curve.

[2] = biological target: T2, CYP2C8 (Homo sapiens, UniProt P10632); test: Cytochrome P450 inhibition, CYP2C8; details: Supersomes; read-out: IC50 (μM) 2C8
T2 construct: purchased BD Gentest, Becton-Dickinson (Supersomes); host or cells: insect cells (microsomes)
T2 sequence (P10632 1-490): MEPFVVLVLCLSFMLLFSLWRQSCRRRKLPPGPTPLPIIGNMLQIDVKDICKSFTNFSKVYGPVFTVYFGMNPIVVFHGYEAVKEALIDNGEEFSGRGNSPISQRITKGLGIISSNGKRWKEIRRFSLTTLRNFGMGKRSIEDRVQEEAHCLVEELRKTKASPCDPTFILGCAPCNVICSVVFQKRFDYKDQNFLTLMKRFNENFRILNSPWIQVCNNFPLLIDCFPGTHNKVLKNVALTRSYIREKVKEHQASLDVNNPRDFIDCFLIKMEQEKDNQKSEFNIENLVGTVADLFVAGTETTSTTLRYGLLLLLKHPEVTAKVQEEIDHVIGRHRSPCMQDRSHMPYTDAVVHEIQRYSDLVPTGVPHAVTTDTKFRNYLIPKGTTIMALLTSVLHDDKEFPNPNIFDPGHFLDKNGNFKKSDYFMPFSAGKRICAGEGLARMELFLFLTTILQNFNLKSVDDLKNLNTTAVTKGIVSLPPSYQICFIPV
Text: as §1, §2, §3

[3] = biological target: T3, CYP2C19 (Homo sapiens, UniProt P33261); test: Cytochrome P450 inhibition, CYP2C19; details: Supersomes; read-out: IC50 (μM) 2C19
T3 construct: purchased BD Gentest, Becton-Dickinson (Supersomes); host or cells: insect cells (microsomes)
Text: as §1, §2, §3

[4] = biological target: T4, CYP2E1 (Homo sapiens, UniProt P05181); test: Cytochrome P450 inhibition, CYP2E1; details: Supersomes; read-out: IC50 (μM) 2E1
T4 construct: purchased BD Gentest, Becton-Dickinson (Supersomes); host or cells: insect cells (microsomes)
Text: as §1, §2, §3

T3 sequence (P33261 whole entry): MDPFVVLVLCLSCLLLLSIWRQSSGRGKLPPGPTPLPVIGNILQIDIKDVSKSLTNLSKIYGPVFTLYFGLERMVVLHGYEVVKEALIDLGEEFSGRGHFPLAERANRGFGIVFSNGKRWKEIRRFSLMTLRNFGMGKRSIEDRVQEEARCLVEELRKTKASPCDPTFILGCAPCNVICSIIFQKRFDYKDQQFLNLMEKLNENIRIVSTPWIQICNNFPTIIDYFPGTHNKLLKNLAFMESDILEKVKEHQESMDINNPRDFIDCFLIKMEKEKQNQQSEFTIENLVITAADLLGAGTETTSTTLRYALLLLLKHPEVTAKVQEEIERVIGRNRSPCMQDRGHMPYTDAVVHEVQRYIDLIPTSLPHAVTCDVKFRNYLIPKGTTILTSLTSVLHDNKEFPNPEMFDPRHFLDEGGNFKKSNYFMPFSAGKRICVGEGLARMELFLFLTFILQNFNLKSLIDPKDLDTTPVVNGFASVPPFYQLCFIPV
T4 sequence (P05181 whole entry): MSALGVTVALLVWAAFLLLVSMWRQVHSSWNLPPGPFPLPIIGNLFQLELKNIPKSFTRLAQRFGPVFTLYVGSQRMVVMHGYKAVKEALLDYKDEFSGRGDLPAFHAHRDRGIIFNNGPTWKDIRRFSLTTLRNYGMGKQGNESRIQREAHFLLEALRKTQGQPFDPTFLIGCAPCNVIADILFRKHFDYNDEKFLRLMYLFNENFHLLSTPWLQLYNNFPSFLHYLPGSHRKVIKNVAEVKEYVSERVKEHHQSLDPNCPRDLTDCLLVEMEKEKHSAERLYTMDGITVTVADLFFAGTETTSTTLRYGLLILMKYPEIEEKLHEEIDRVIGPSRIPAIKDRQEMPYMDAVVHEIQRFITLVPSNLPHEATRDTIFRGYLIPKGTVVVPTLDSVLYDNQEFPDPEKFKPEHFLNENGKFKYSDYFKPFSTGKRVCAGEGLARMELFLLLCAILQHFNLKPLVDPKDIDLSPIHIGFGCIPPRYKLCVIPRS

CCC[C@@H]1NC(=O)[C@@H](C(C)C)NC(=O)[C@@H](Cc2cccc(F)c2)N[C@@H](C)COc2ccccc2CCCNC1=O [Compound 551]
IC50 [1]: > 100 µM | IC50 [2]: > 100 µM | IC50 [3]: 37 µM | IC50 [4]: > 100 µM

CCC[C@@H]1NC(=O)[C@@H](C(C)C)NC(=O)[C@@H](Cc2ccc(O)c(C(C)(C)C)c2)NCCOc2ccccc2CCCNC1=O [Compound 553]
IC50 [1]: > 100 µM | IC50 [2]: > 100 µM | IC50 [3]: > 100 µM | IC50 [4]: > 100 µM
